# Target: Replicase polyprotein 1ab (Severe acute respiratory syndrome coronavirus 2, UniProt P0DTD1)
# Experiment: Inhibition of recombinant SARS-CoV-2 Main protease using TAMRA-SITSAVLQSGFRKMK-DABCYL-OH fluorogenic peptide as substrate preincubated or 30 mins followed by substrate addition by FRET assay
row,Compound,IC50 [nM]
1,CC(C)(C)C(=O)N[C@H](C(=O)N1C[C@H]2[C@@H]([C@H]1C(=O)N[C@H](C#N)C[C@@H]1CCNC1=O)C2(C)C)C(C)(C)C,< 100
2,CC(C)C(=O)N[C@H](C(=O)N1C[C@H]2[C@@H]([C@H]1C(=O)N[C@H](C#N)C[C@@H]1CCNC1=O)C2(C)C)C(C)(C)C,< 100
3,COc1cccc2[nH]c(C(=O)N3C[C@@H]4CCC[C@@H]4[C@H]3C(=O)N[C@@H](C[C@@H]3CCNC3=O)C(=O)COC(=O)c3c(Cl)cccc3Cl)cc12,< 100
4,CCC(=O)N[C@H](C(=O)N1C[C@H]2[C@@H]([C@H]1C(=O)N[C@H](C#N)C[C@@H]1CCNC1=O)C2(C)C)C(C)(C)C,< 100
5,CC1(C)[C@@H]2[C@@H](C(=O)N[C@H](C#N)C[C@@H]3CCNC3=O)N(C(=O)c3cc4c(OC(F)F)cccc4[nH]3)C[C@@H]21,100
6,COc1cccc2[nH]c(C(=O)N3C[C@@H]4CCC[C@@H]4[C@H]3C(=O)N[C@H](C=O)C[C@@H]3CCNC3=O)cc12,< 100
7,COc1cccc2[nH]c(C(=O)N3C[C@@H]4CCC[C@@H]4[C@H]3C(=O)N[C@@H](C[C@@H]3CCNC3=O)C(=O)CCl)cc12,100
8,COc1cccc2[nH]c(C(=O)N3C[C@@H]4CCC[C@@H]4[C@H]3C(=O)N[C@@H](C[C@@H]3CCNC3=O)C(=O)CO)cc12,100
9,CC(C)(C)[C@H](NC(=O)Cc1ccccc1)C(=O)N1C[C@H]2[C@@H]([C@H]1C(=O)N[C@H](C#N)C[C@@H]1CCNC1=O)C2(C)C,< 100
10,CC(=O)N[C@H](C(=O)N1C[C@H]2[C@@H]([C@H]1C(=O)N[C@H](C#N)C[C@@H]1CCNC1=O)C2(C)C)C(C)(C)C,< 100
11,N#C[C@H](C[C@@H]1CCNC1=O)NC(=O)[C@@H]1CCCN1C(=O)c1cc2c(OC(F)F)cccc2[nH]1,> 1000
12,CC(C)(C)[C@H](NC(=O)C1CCCCC1)C(=O)N1C[C@H]2[C@@H]([C@H]1C(=O)N[C@H](C#N)C[C@@H]1CCNC1=O)C2(C)C,< 100
13,COc1cccc2[nH]c(C(=O)N3C[C@@H]4CCC[C@@H]4[C@H]3C(=O)N[C@@H](C[C@@H]3CCNC3=O)C(=O)C(=O)NC3CCCCC3)cc12,< 100
